Test results published in patent US10053431B2, “Tetrahydro-benzodiazepinones” (priority 2013, dated 2018).
Structures can show the parent of a compound that is named as a salt. Where two headings read alike, the source gives them in different places.

Assays:
BIR3 domain of XIAP = BIR3 domain of XIAP (Homo sapiens (Human), UniProt P98170); assay: TR-FRET assay for BIR3 (inhibition of binding of XIAP BIR3 domain to SMAC-derived Peptide A); conditions: 6x His-tagged BIR3 domain (aa 241-356 of XIAP) 10 nM, Peptide A 20 nM, TR-FRET
BIR2 domain of XIAP = BIR2 domain of XIAP (Homo sapiens (Human), UniProt P98170, C202A/C213G); assay: TR-FRET assay for BIR2 (inhibition of binding of XIAP BIR2 domain to SMAC-derived Peptide A)
[1] = 6x His-tagged BIR2 domain (aa 124-240 of XIAP) 10 nM, Peptide A 20 nM, TR-FRET, read-out: IC50 BIR2

BIR2 domain of XIAP, sequence (P98170 124-240 with tags or gaps C202A/C213G limits assumed): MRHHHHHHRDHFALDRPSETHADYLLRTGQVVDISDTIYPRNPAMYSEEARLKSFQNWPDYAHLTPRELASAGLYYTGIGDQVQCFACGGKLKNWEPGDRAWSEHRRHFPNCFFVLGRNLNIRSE
BIR3 domain of XIAP, sequence (P98170 241-356 with tags or gaps limits assumed): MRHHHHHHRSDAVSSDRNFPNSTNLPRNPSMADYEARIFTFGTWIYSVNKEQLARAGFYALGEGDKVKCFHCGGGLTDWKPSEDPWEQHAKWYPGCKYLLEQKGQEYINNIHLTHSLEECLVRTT

Compound | IC50 (BIR3 domain of XIAP) [nM] | IC50 (BIR2 domain of XIAP; [1]) [nM] | IC50 (BIR2 domain of XIAP; IC50 BIR2) [nM]
CN[C@@H](C)C(=O)N[C@@H]1C(=O)N(CC(=O)Nc2ccccc2)c2ccccc2N(C(C)=O)[C@H]1C [Example 191, (S)-N-((2S,3S)-1-acetyl-2-methyl-4-oxo-5-(2-oxo-2-(phenylamino)ethyl)-2,3,4,5-tetrahydro-1H-benzo[b][1,4]diazepin-3-yl)-2-(methylamino)propanamide hydrochloride] | > 54800 | 434 | –
CN[C@@H](C)C(=O)N[C@H]1CN2C(=O)CCCCNC(=O)c3ccc4c(c(OC)ccc4c3)CN(C1=O)c1ccccc12 [Example 54, Cyclic-5-[(S)-5-(5-amino-pentanoyl)-3-((S)-2-methylamino-propionylamino)-2-oxo-2,3,4,5-tetrahydro-benzo[b][1,4]diazepin-1-ylmethyl]-6-methoxy-naphthalene-2-carboxylic amide hydrochloride] | 16000 | 18 | –
CCN[C@@H](CC)C(=O)NC1C(=O)N(Cc2c(OC)ccc3c(Br)cccc23)c2ccccc2N(c2ccccc2)C1=O (stereo partly drawn) [Example 134, (2S)-N-(1-((5-bromo-2-methoxynaphthalen-1-yl)methyl)-2,4-dioxo-5-phenyl-2,3,4,5-tetrahydro-1H-benzo[b][1,4]diazepin-3-yl)-2-(ethylamino)butanamide] | > 54800 | – | 32.5
CN[C@@H](C)C(=O)N[C@H]1CN(C(=O)CCS(C)(=O)=O)c2cc(C(F)(F)F)ccc2N(Cc2c(C3CC3)cnc3ccccc23)C1=O [Example 188, (S)-N-((S)-1-((3-cyclopropylquinolin-4-yl)methyl)-5-(3-(methylsulfonyl)propanoyl)-2-oxo-7-(trifluoromethyl)-2,3,4,5-tetrahydro-1H-benzo[b][1,4]diazepin-3-yl)-2-(methylamino)propanamide] | 25400 | 22.5 | –
COc1ccc2ccccc2c1CN1C(=O)[C@@H](NC(=O)[C@H](C)N)CN(C(=O)c2ccc(N)cc2)c2ccccc21 [Example 65, (S)-2-amino-N—((S)-5-(4-aminobenzoyl)-1-((2-methoxynaphthalen-1-yl)methyl)-2-oxo-2,3,4,5-tetrahydro-1H-benzo[b][1,4]diazepin-3-yl)propanamide] | 23600 | 7 | –
CN[C@@H](C)C(=O)NC1C(=O)N(Cc2c(OC)ccc3cc(Br)ccc23)c2ccccc2N(c2ccccc2)C1=O (stereo partly drawn) [Example 128, (2S)-N-(1-((6-bromo-2-methoxynaphthalen-1-yl)methyl)-2,4-dioxo-5-phenyl-2,3,4,5-tetrahydro-1H-benzo[b][1,4]diazepin-3-yl)-2-(methylamino)propanamide] | 44800 | – | 4.99
CC(=O)c1ccc(C(=O)N2C[C@H](NC(=O)[C@H](C)N)C(=O)N(Cc3c(OC(F)F)ccc4ccccc34)c3ccccc32)cc1 [Example 69i] | 52000 | 39 | –
CN[C@@H](C)C(=O)N[C@H]1CN(C(=O)Cc2ccccc2)c2ccccc2N(Cc2cccc3ccccc23)C1=O [Example 4, (S)-2-Methylamino-N—((S)-1-naphthalen-1-ylmethyl-2-oxo-5-phenylacetyl-2,3,4,5-tetrahydro-1H-benzo[b][1,4]diazepin-3-yl)-propionamide hydrochloride] | > 54000 | 409 | –
CN[C@@H](C)C(=O)N[C@H]1CN(S(C)(=O)=O)c2ccccc2N(Cc2c(C)ccc3ccccc23)C1=O [Example 19, (S)—N—[(S)-5-methanesulfonyl-1-(2-methyl-naphthalen-1-ylmethyl)-2-oxo-2,3,4,5-tetrahydro-1H-benzo[b][1,4]diazepin-3-yl]-2-methylamino-propionamide hydrochloride] | > 54800 | 620 | –
CN[C@@H](C)C(=O)N[C@H]1CN(C(=O)c2ccc(C(C)=O)cc2)c2ccccc2N(Cc2c(C)ccc3ccccc23)C1=O [Example 13f] | > 54800 | 54 | –
CC[C@H](NC)C(=O)NC1C(=O)N(C)c2ccccc2N(Cc2c(C)ccc3ccccc23)C1=O (stereo partly drawn) [Example 114, (2S)-N-(1-methyl-5-((2-methylnaphthalen-1-yl)methyl)-2,4-dioxo-2,3,4,5-tetrahydro-1H-benzo[b][1,4]diazepin-3-yl)-2-(methylamino)butanamide] | > 54800 | 530 | –
CCN[C@@H](CC)C(=O)N[C@H]1CN(C(=O)CS(C)(=O)=O)c2ccccc2N(Cc2c(OC)ccc3c(Br)cccc23)C1=O [Example 155, (S)-N-((S)-1-((5-bromo-2-methoxynaphthalen-1-yl)methyl)-5-(2-(methylsulfonyl)acetyl)-2-oxo-2,3,4,5-tetrahydro-1H-benzo[b][1,4]diazepin-3-yl)-2-(ethylamino)butanamide hydrochloride] | > 54800 | 18.6 | –
CN[C@@H](C)C(=O)N[C@H]1CN(C(=O)c2ccc(F)cc2)c2cc(Cl)ccc2N(Cc2c(OC)ccc3cc(Br)ccc23)C1=O [Example 130, (S)-N-((S)-1-((6-bromo-2-methoxynaphthalen-1-yl)methyl)-7-chloro-5-(4-fluorobenzoyl)-2-oxo-2,3,4,5-tetrahydro-1H-benzo[b][1,4]diazepin-3-yl)-2-(methylamino)propanamide hydrochloride] | 16400 | 35.6 | –
CN[C@@H](C)C(=O)NC1C(=O)N(Cc2c(C)ccc3ccccc23)c2ccccc2N(c2ccccc2)C1=O (stereo partly drawn) [Example 116, (2S)-2-(methylamino)-N-(1-((2-methylnaphthalen-1-yl)methyl)-2,4-dioxo-5-phenyl-2,3,4,5-tetrahydro-1H-benzo[b][1,4]diazepin-3-yl)propanamide] | > 54800 | – | 39.8
CN[C@@H](C)C(=O)N[C@H]1CN(C(=O)c2ccc(N)cc2)c2ccccc2N(Cc2noc3ccccc23)C1=O [Example 71, (S)—N—((S)-5-(4-Aminobenzoyl)-1-(benzo[d]isoxazol-3-ylmethyl)-2-oxo-2,3,4,5-tetrahydro-1H-benzo[b][1,4]diazepin-3-yl)-2-(methylamino)propanamide hydrochloride] | > 54800 | 64 | –

Further lines, with some results ahead:

IC50 (BIR3 domain of XIAP) [nM] | IC50 (BIR2 domain of XIAP; [1]) [nM] | Compound | IC50 (BIR2 domain of XIAP; IC50 BIR2) [nM]
> 54800 | 95.7 | CN[C@@H](C)C(=O)N[C@H]1CNc2cc(C#N)ccc2N(Cc2nn(-c3ccccc3C#N)c3ccccc23)C1=O [Example 168, (S)-N-((S)-7-cyano-1-((1-(2-cyanophenyl)-1H-indazol-3-yl)methyl)-2-oxo-2,3,4,5-tetrahydro-1H-benzo[b][1,4]diazepin-3-yl)-2-(methylamino)propanamide dihydrochloride] | –
28100 | 106 | CN[C@@H](C)C(=O)N[C@H]1CN(C(=O)CC2CCOCC2)c2ccccc2N(Cc2c(C)ccc3ccccc23)C1=O [Example 96c] | –
> 54800 | 37 | CN[C@@H](C)C(=O)N[C@H]1CN(C(=O)c2ccc(OC)cc2)c2ccccc2N(Cc2c(C)ccc3ccccc23)C1=O [Example 96l] | –
> 54800 | 33.2 | CN[C@@H](C)C(=O)N[C@H]1CN(C(C)=O)c2cc(C#N)ccc2N(Cc2nn(-c3ccccc3C#N)c3ccccc23)C1=O [Example 169, (S)-N-((S)-5-acetyl-7-cyano-1-((1-(2-cyanophenyl)-1H-indazol-3-yl)methyl)-2-oxo-2,3,4,5-tetrahydro-1H-benzo[b][1,4]diazepin-3-yl)-2-(methylamino)propanamide hydrochloride] | –
41200 | 30.3 | CN[C@@H](C)C(=O)N[C@H]1CN(C(=O)CS(C)(=O)=O)c2ccc(C#N)cc2N(Cc2c(OC)ccc3ccccc23)C1=O [Example 171, (S)-N-((S)-8-cyano-1-((2-methoxynaphthalen-1-yl)methyl)-5-(2-(methylsulfonyl)acetyl)-2-oxo-2,3,4,5-tetrahydro-1H-benzo[b][1,4]diazepin-3-yl)-2-(methylamino)propanamide hydrochloride] | –
49000 | 28.4 | CN[C@@H](C)C(=O)N[C@H]1CN(C(=O)c2ccc(F)cc2)c2cc(C#N)ccc2N(Cc2c(OC(F)F)ccc3ccccc23)C1=O [Example 151, (S)-N-((S)-7-cyano-1-((2-(difluoromethoxy)naphthalen-1-yl)methyl)-5-(4-fluorobenzoyl)-2-oxo-2,3,4,5-tetrahydro-1H-benzo[b][1,4]diazepin-3-yl)-2-(methylamino)propanamide hydrochloride] | –
> 54800 | 49 | CN[C@@H](C)C(=O)N[C@H]1CN(C(=O)c2ccc(C#N)cc2)c2ccccc2N(Cc2c(OC(F)F)ccc3ccccc23)C1=O [Example 74, (S)—N—((S)-5-(4-Cyanobenzoyl)-1-((2-(difluoromethoxy)naphthalen-1-yl)methyl)-2-oxo-2,3,4,5-tetrahydro-1H-benzo[b][1,4]diazepin-3-yl)-2-(methylamino)propanamide] | –
32200 | 38 | CN[C@@H](C)C(=O)N[C@H]1CN(C(=O)c2ccc(C)cc2)c2ccccc2N(Cc2c(C)ccc3ccccc23)C1=O [Example 96k] | –
> 54800 | 25.5 | CN[C@@H](C)C(=O)N[C@H]1CN(C(=O)C2CCOCC2)c2cc(C#N)ccc2N(Cc2nn(-c3ccccc3C#N)c3ccccc23)C1=O [Example 170, (S)-N-((S)-7-cyano-1-((1-(2-cyanophenyl)-1H-indazol-3-yl)methyl)-2-oxo-5-(tetrahydro-2H-pyran-4-carbonyl)-2,3,4,5-tetrahydro-1H-benzo[b][1,4]diazepin-3-yl)-2-(methylamino)propanamide hydrochloride] | –
> 54800 | 18.2 | CN[C@@H](C)C(=O)N[C@H]1CN(C(=O)c2ccc3cn[nH]c3c2)c2ccccc2N(Cc2c(C)ccc3ccccc23)C1=O [Example 158, (2S)-N-[(3S)-1-(1H-indazole-6-carbonyl)-5-[(2-methylnaphthalen-1-yl)methyl]-4-oxo-2,3-dihydro-1,5-benzodiazepin-3-yl]-2-(methylamino)propanamide] | –
13600 | 23 | CN[C@@H](C)C(=O)N[C@H]1CN(C(=O)Cc2cccnc2)c2ccccc2N(Cc2c(C)ccc3ccccc23)C1=O [Example 96h] | –
